Tests used:
[1] = target: human MLKL (full length) (Homo sapiens (Human), UniProt Q8NB16); assay: KINOMEscan binding assay, human MLKL (full length); conditions: equilibrium dissociation constant
Summary of the method: (§1)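 Competition binding format with qPCR detection. Kinases, either phage-fused from E. coli lysates or HEK-293-derived with a DNA tag, bound ligand-coated beads in the presence of compound (11 points, 3-fold steps, 1% DMSO, top usually 30,000 nM). Kd from nonlinear Hill fitting with slope −1.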

[2] = target: human RIPK1 (Homo sapiens (Human), UniProt Q13546); assay: KINOMEscan binding assay, human RIPK1; conditions: equilibrium dissociation constant
human RIPK1, sequence (Q13546 whole entry): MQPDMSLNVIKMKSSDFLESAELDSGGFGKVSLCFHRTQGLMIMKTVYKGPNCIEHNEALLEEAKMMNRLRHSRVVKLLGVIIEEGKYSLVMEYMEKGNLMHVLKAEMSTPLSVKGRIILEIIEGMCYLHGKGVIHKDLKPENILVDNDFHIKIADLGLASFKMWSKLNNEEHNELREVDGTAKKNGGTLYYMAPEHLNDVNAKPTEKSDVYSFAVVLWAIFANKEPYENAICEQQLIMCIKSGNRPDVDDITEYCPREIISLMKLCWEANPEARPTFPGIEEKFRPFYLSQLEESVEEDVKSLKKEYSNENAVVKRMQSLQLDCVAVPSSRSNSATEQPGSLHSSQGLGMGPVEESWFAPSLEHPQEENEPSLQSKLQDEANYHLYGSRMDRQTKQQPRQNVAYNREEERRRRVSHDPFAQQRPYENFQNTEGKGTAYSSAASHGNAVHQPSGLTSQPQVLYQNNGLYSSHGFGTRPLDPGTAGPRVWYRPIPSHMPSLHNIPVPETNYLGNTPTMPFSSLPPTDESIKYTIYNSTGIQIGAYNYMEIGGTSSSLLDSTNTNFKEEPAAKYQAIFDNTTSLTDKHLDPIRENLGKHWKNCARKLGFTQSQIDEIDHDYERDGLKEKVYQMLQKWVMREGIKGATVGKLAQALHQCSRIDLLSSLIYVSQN
Summary of the method: as §1

[3] = target: human RIPK3 (Homo sapiens (Human), UniProt Q9Y572); assay: KINOMEscan binding assay, human RIPK3; conditions: equilibrium dissociation constant
human RIPK3, sequence (Q9Y572 whole entry): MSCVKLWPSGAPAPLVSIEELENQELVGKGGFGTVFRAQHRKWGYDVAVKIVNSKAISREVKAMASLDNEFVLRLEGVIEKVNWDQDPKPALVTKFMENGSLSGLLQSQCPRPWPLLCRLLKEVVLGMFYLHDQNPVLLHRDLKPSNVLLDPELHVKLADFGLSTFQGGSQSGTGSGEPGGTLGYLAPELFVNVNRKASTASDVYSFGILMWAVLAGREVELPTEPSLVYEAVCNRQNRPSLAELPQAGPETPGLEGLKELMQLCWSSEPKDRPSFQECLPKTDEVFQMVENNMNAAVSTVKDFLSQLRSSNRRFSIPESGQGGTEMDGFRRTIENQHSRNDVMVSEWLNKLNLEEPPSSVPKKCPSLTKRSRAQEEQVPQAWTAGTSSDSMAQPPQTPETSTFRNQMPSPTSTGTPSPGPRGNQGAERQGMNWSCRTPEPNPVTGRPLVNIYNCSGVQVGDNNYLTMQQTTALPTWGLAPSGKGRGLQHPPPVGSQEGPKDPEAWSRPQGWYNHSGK
Summary of the method: as §1

[4] = system: Immortalised Mouse Dermal Fibroblasts (MDFs); assay: Inhibition of TSI induced necroptosis in mouse dermal fibroblasts (CellTitre-Glo); conditions: Mus musculus, Fibroblast, 3 h, MDF cells, TSI cocktail (TNF, Smac mimetic, IDN-6556), read-out: Inhibition of TSI-induced necroptosis (IC50 cell-based assay) in MDF
Experimental: Cellular Assay: Screening Compounds for Inhibition of TSI Induced Necroptosis in, 384 well plate format. • Cell Line ID: Immortalised Mouse Dermal Fibroblasts (MDFs). • Cell Concentration (cells/well): Final cell density is 2200 cells per well. • Cell growth medium: DMEM medium+7.4% Fetal Bovine Serum (FBS). Cells are cultured in Corning 150 cm^2 tissue culture flasks with vented caps at 37° C./10% CO2. • Incubation: Plates were incubated for 30 minutes following addition of compounds and then 3 hours incubation with death stimuli (TSI cocktail) at 37° C./10% CO2 in a humidified incubator. • Compound concentration: 36 μM starting concentration, 1:3 dilution, 10 point • DMSO final concentration (% v/v): 0.3%. Compounds in TSI Cocktail (T: TNF; S: Smac Mimetic; I: IDN-6556) and their Final Concentrations: • rhTNF (100 ng/ml) • Compound A (500 nM)—Smac mimetic, Tetralogic and SYNthesis med chem • IDN-6556 (10 μM)—Selleckchem (S7775)
The cellular assay was carried out according to the following steps: • 1. Each well was prepared by sequential addition of: • a. 40 μL of cell suspension (5.5×10^4 cells/mL) was added to each well to provide a final cell concentration of 2,200 cells per well. • b. After 24 hours, DMSO (control; columns 1-2 and 23-24) or compound in DMSO—addition was performed using acoustic transfer of nL volumes of stock compound to give final test concentrations of 36, 12, 4, 1.3, 0.44, 0.148, 0.049, 0.016, 0.005 and 0.002 μM. All wells were backfilled with DMSO to a final total volume in the well of 100 nL. • c. Following compound/DMSO addition in step (b), Plates were incubated for 30 minutes at 37° C./10% CO2 in a humidified incubator and then 10 μL of 5×TSI cocktail (except to positive controls; columns 2 and 24) was added to each well. • 2. After 3 hours, plate was removed from the 37° C. incubator and equilibrated to room temperature for 15 minutes. • 3. 15 μL of room temperature CellTitre-Glo2™ (Promega™) was added to each well. • 4. Shook plates for 2 minutes (˜600 rpm) and incubated at room temperature for 15 minutes to allow signal to stabilise. • 5. Read luminescence readout on a plate reader.
Percent viability was calculated for each compound according to equation (2): […]
10 point titration curves were fitted with the 4 parameter logistic nonlinear regression model and the IC50 reported reflect the inflection point of the curve for curve fitting.
• Assay involving the TSI cocktail (T: TNF; S: Smac mimetic; I: IDN-6556): TSI treatment ensures that cells specifically undergo necroptotic cell death. TNF activates the TNF receptor, Smac mimetic directs the signal away from proinflammatory signaling and toward the RIPK1/RIPK3-mediated cell death pathways, and IDN-6556 (Caspase inhibitor) ensures that the apoptotic response is blocked leaving only the programmed necrosis response. The compounds' activity (solution in DMSO) tested in this TSI-induced assay was evaluated by determining the number of viable cells in culture by measuring the amount of ATP present as measured by CelltiterGlo.

[5] = system: U937 human histiocytic leukemia cell line; assay: Inhibition of TSQ induced necroptosis in U937 cells (CellTitre-Glo); conditions: Homo sapiens, U-937, TSQ cocktail (TNF, Smac mimetic, Q-VD-OPh), 48 hours, read-out: Inhibition of TSQ-induced necroptosis (IC50 cell-based assay)
Summary of the method: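 U937 cells (20000/well) treated with compound (10-point, 1:3 from 36 μM, 0.3% DMSO) plus TSQ cocktail (hTNF-Fc 100 ng/ml, Smac mimetic 500 nM, Q-VD-OPh 10 μM), 48 h at 37 °C. Viability by CellTiter-Glo luminescence; IC50 from 4-parameter logistic fit. Counter screen: same cells without TSQ.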

[6] = system: U937 cells; assay: Counter screen: U937 cell viability without TSQ cocktail (off-target effect); design: species or system human; conditions: Homo sapiens, U-937, compound without TSQ cocktail, read-out: Off-target effect (IC50 cell-based assay)
Summary of the method: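 U937 cells (20,000/well) exposed to compound (10-point 1:3 titration from 36 μM, 0.3% DMSO) without TSQ cocktail for 48 h at 37 °C/5% CO2. Viability read as ATP by CellTiter-Glo luminescence; IC50 from 4-parameter logistic fit.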

human MLKL (full length), sequence (Q8NB16 whole entry, the tested form may be a part): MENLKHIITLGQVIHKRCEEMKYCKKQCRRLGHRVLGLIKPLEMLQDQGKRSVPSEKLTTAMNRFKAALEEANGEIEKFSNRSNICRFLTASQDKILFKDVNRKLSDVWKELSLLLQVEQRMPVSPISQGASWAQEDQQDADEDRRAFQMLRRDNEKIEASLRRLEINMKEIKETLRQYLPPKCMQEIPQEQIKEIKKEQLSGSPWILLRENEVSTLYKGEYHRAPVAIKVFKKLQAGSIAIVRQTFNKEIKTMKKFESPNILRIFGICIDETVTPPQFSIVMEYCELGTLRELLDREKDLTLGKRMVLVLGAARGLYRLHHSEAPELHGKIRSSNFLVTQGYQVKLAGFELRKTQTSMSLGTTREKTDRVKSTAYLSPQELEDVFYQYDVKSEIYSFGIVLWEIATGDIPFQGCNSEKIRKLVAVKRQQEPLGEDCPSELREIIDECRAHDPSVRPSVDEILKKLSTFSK

| Compound | Kd [1] [nM] | Kd [2] [nM] | Kd [3] [nM] | IC50 [4] [nM] | IC50 [5] [nM] | IC50 [6] [nM] |
| --- | --- | --- | --- | --- | --- | --- |
| Cn1nc(-c2ccc(NS(=O)(=O)C(F)F)c(OCC3CCCCC3)c2)c2c(N)ncc(-c3cnn(C4CCOCC4)c3)c21 [Compound 150, N-(4-(4-amino-1-methyl-7-(1-(tetrahydro-2H-pyran-4-yl)-1H-pyrazol-4-yl)-1H-pyrazolo[4,3-c]pyridin-3-yl)-2-(cyclohexylmethoxy)phenyl)-1,1-difluoromethanesulfonamide] | < 1 | > 10000 | > 10000 | 1000 to 10000 |  |  |
| C[C@H](Oc1cc(-c2nn(C)c3c(-c4cnn(C5CCC(N(C)C)C5)c4)cnc(N)c23)ccc1NS(=O)(=O)C(F)F)c1ccc(F)cc1 (stereo partly drawn) [Compound 168, N-(4-(4-amino-7-(1-(3-(dimethylamino)cyclopentyl)-1H-pyrazol-4-yl)-1-methyl-1H-pyrazolo[4,3-c]pyridin-3-yl)-2-((S)-1-(4-fluorophenyl)ethoxy)phenyl)-1,1-difluoromethanesulfonamide] |  |  |  | 100 to 1000 | 10 to 1000 | > 10000 |
| C[C@H](Oc1cc(-c2nn(C)c3c(-c4cnn(C5CCNC(C(F)(F)F)C5)c4)cnc(N)c23)ccc1NS(=O)(=O)C(F)F)c1ccc(F)cc1 (stereo partly drawn) [Compound 149, N-(4-(4-amino-1-methyl-7-(1-(2-(trifluoromethyl)piperidin-4-yl)-1H-pyrazol-4-yl)-1H-pyrazolo[4,3-c]pyridin-3-yl)-2-((S)-1-(4-fluorophenyl)ethoxy)phenyl)-1,1-difluoromethanesulfonamide] |  |  |  | 100 to 1000 | < 10 | > 10000 |
| CCS(=O)(=O)Nc1ccc(-c2coc3c(-c4cnn(C5CCOCC5)c4)cnc(N)c23)cc1OCc1ccc(F)cc1 [Compound 3, N-(4-(4-amino-7-(1-(tetrahydro-2H-pyran-4-yl)-1H-pyrazol-4-yl)furo[3,2-c]pyridin-3-yl)-2-((4-fluorobenzyl)oxy)phenyl)ethanesulfonamide] | < 1 | > 10000 | > 10000 | 1000 to 10000 |  |  |
| C[C@H](Oc1cc(-c2nn(C)c3c(-c4cnn(C5CCNCC5)c4)cnc(N)c23)ccc1NS(=O)(=O)C(F)F)c1ccc(F)cc1 [Compound 59, (S)-N-(4-(4-amino-1-methyl-7-(1-(piperidin-4-yl)-1H-pyrazol-4-yl)-1H-pyrazolo[4,3-c]pyridin-3-yl)-2-(1-(4-fluorophenyl)ethoxy)phenyl)-1,1-difluoromethanesulfonamide] | < 1 | > 10000 | > 10000 |  | 10 to 1000 | > 10000 |
| Cc1cc(-c2cnc(N)c3c(-c4ccc(NS(=O)(=O)C(F)F)c(O[C@@H](C)c5ccc(F)cc5)c4)nn(C)c23)ccn1 [Compound 24, (S)-N-(4-(4-amino-1-methyl-7-(2-methylpyridin-4-yl)-1H-pyrazolo[4,3-c]pyridin-3-yl)-2-(1-(4-fluorophenyl)ethoxy)phenyl)-1,1-difluoromethanesulfonamide] | < 1 | > 10000 | > 10000 |  | 10 to 1000 | > 10000 |
| C[C@H](Oc1cc(-c2nn(C)c3c(-c4cnn(C5CC6(CNC6)C5)c4)cnc(N)c23)ccc1NS(=O)(=O)C(F)F)c1ccc(F)cc1 [Compound 78, (S)-N-(4-(7-(1-(2-azaspiro[3.3]heptan-6-yl)-1H-pyrazol-4-yl)-4-amino-1-methyl-1H-pyrazolo[4,3-c]pyridin-3-yl)-2-(1-(4-fluorophenyl)ethoxy)phenyl)-1,1-difluoromethanesulfonamide] | < 1 | > 10000 | > 10000 |  | 10 to 1000 | > 10000 |
| Cn1nc(-c2ccc(NS(=O)(=O)C(F)F)cc2OCc2cccc(F)c2)c2c(N)ncc(-c3cnn(C4CCOCC4)c3)c21 [Compound 135, N-(4-(4-amino-1-methyl-7-(1-(tetrahydro-2H-pyran-4-yl)-1H-pyrazol-4-yl)-1H-pyrazolo[4,3-c]pyridin-3-yl)-3-((3-fluorobenzyl)oxy)phenyl)-1,1-difluoromethanesulfonamide] | < 1 | > 10000 | > 10000 |  | 10 to 1000 | > 10000 |
| C[C@H](Oc1cc(-c2nn(C)c3c(-c4cnn(C5COC5)c4)cnc(N)c23)ccc1NS(=O)(=O)C(F)F)c1ccc(F)cc1 [Compound 38, (S)-N-(4-(4-amino-1-methyl-7-(1-(oxetan-3-yl)-1H-pyrazol-4-yl)-1H-pyrazolo[4,3-c]pyridin-3-yl)-2-(1-(4-fluorophenyl)ethoxy)phenyl)-1,1-difluoromethanesulfonamide] | < 1 | > 10000 | > 10000 |  | < 10 | > 10000 |
| CC(C)n1nc(-c2ccc(NS(=O)(=O)C(F)F)c(O[C@@H](C)c3ccc(F)cc3)c2)c2c(N)ncc(-c3cnn(C)c3)c21 [Compound 52, (S)-N-(4-(4-amino-1-isopropyl-7-(1-methyl-1H-pyrazol-4-yl)-1H-pyrazolo[4,3-c]pyridin-3-yl)-2-(1-(4-fluorophenyl)ethoxy)phenyl)-1,1-difluoromethanesulfonamide] | 1 to 100 | > 10000 | > 10000 |  | 10 to 1000 | > 10000 |
| COc1ccc(-c2cnc(N)c3c(-c4ccc(NS(=O)(=O)C(F)F)c(O[C@@H](C)c5ccc(F)cc5)c4)nn(C)c23)cn1 [Compound 28, (S)-N-(4-(4-amino-7-(6-methoxypyridin-3-yl)-1-methyl-1H-pyrazolo[4,3-c]pyridin-3-yl)-2-(1-(4-fluorophenyl)ethoxy)phenyl)-1,1-difluoromethanesulfonamide] | < 1 | > 10000 | > 10000 |  | 10 to 1000 | > 10000 |
| C[C@H](Oc1cc(-c2nn(C)c3c(-c4ccccc4Cl)cnc(N)c23)ccc1NS(=O)(=O)C(F)F)c1ccc(F)cc1 [Compound 85, (S)-N-(4-(4-amino-7-(2-chlorophenyl)-1-methyl-1H-pyrazolo[4,3-c]pyridin-3-yl)-2-(1-(4-fluorophenyl)ethoxy)phenyl)-1,1-difluoromethanesulfonamide] | 1 to 100 | > 10000 | > 10000 |  | 1000 to 10000 | > 10000 |
| C[C@H](Oc1cc(-c2cnn3c(-c4cnn(C)c4)cnc(N)c23)ccc1NS(=O)(=O)C(F)F)c1ccc(F)cc1 [Compound 35, (S)-N-(4-(4-amino-7-(1-methyl-1H-pyrazol-4-yl)pyrazolo[1,5-a]pyrazin-3-yl)-2-(1-(4-fluorophenyl)ethoxy)phenyl)-1,1-difluoromethanesulfonamide] | < 1 | > 10000 | > 10000 |  | 10 to 1000 | > 10000 |
